Test results as given in PubChem BioAssay AID2060601 (Molecular Pharmacology Branch, DTP, NCI, 2025).

Test system: 874868-142-R-J2-PDC complex spheroids, growth % test/control
Experiment: Anticancer human tumor 874868-142-R-J2-PDC patient-derived head and neck squamous carcinoma cell line growth inhibition [CLK]
Settings: for IC50: curve of first compound; for viability, T/C: stronger effect = lower value; active = viability on the fitted dose curve at most 10% of control; inactive = the rest
Summary of the method: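 Multi-cell-type spheroids combined patient-derived tumor cells with HUVEC endothelial cells and human mesenchymal stem cells. Paired agents were dosed in half-log steps down from about clinical Cmax, or from 10 microM where Cmax was unknown.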

[1] = second compound 0.0316 µM, first compound 0.0316 µM
[2] = second compound 0.0316 µM, first compound 0.1 µM
[3] = second compound 0.0316 µM, first compound 0.316 µM
[4] = second compound 0.0316 µM, first compound 1 µM
[5] = second compound 0.0316 µM, first compound 3.16 µM
[6] = second compound 0.0316 µM, first compound 10 µM
[7] = second compound 0.1 µM, first compound 0.0316 µM
[8] = second compound 0.1 µM, first compound 0.1 µM
[9] = second compound 0.1 µM, first compound 0.316 µM
[10] = second compound 0.1 µM, first compound 1 µM
[11] = second compound 0.1 µM, first compound 3.16 µM
[12] = second compound 0.1 µM, first compound 10 µM
[13] = second compound 0.316 µM, first compound 0.0316 µM
[14] = second compound 0.316 µM, first compound 0.1 µM
[15] = second compound 0.316 µM, first compound 0.316 µM
[16] = second compound 0.316 µM, first compound 1 µM
[17] = second compound 0.316 µM, first compound 3.16 µM
[18] = second compound 0.316 µM, first compound 10 µM
[19] = second compound 1 µM, first compound 0.0316 µM
[20] = second compound 1 µM, first compound 0.1 µM
[21] = second compound 1 µM, first compound 0.316 µM
[22] = second compound 1 µM, first compound 1 µM
[23] = second compound 1 µM, first compound 3.16 µM
[24] = second compound 1 µM, first compound 10 µM
[25] = second compound 3.16 µM, first compound 0.0316 µM
[26] = second compound 3.16 µM, first compound 0.1 µM
[27] = second compound 3.16 µM, first compound 0.316 µM
[28] = second compound 3.16 µM, first compound 1 µM
[29] = second compound 3.16 µM, first compound 3.16 µM
[30] = second compound 3.16 µM, first compound 10 µM
[31] = second compound 10 µM, first compound 0.0316 µM
[32] = second compound 10 µM, first compound 0.1 µM
[33] = second compound 10 µM, first compound 0.316 µM
[34] = second compound 10 µM, first compound 1 µM
[35] = second compound 10 µM, first compound 3.16 µM
[36] = second compound 10 µM, first compound 10 µM
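Also: spheroids exposed to the compounds for 7 days.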
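For viability, T/C in this document: 100% = DMSO vehicle control viability.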

COc1cccc2c1C(=O)c1c(O)c3c(c(O)c1C2=O)CC(O)(C(=O)CO)CC3OC1CC(N)C(O)C(C)O1 (centres undefined) + CN1CCN(c2cc(C(=O)Nc3cc4cc(-c5cnn(C)c5)ccc4cn3)ccn2)CC1
inactive: viability, T/C [1] 63.8% | viability, T/C [2] 45.1% | viability, T/C [3] 28.2% | viability, T/C [7] 55.6% | viability, T/C [8] 38.7% | viability, T/C [9] 20.3% | viability, T/C [13] 14.6%
46.7 nM: IC50 (second compound 0.1 µM)
active: viability, T/C [4] 1.26% | viability, T/C [5] 0.13% | viability, T/C [6] 0.12% | viability, T/C [10] 1.08% | viability, T/C [11] 0.17% | viability, T/C [12] 0.22% | viability, T/C [14] 12.6% | viability, T/C [15] 3.13% | viability, T/C [16] 0.26% | viability, T/C [17] 0.13% | viability, T/C [18] 0.18% | viability, T/C [19] 0.21% | viability, T/C [20] 0.85% | viability, T/C [21] 0.41% | viability, T/C [22] 0.34% | viability, T/C [23] 0.12% | viability, T/C [24] 0.14% | viability, T/C [25] 0.22% | viability, T/C [26] 0.15% | viability, T/C [27] 2.26% | viability, T/C [28] 0.14% | viability, T/C [29] 0.21% | viability, T/C [30] 0.12% | viability, T/C [31] 0.07% | viability, T/C [32] 0.94% | viability, T/C [33] 0.15% | viability, T/C [34] 0.12% | viability, T/C [35] 0.14% | viability, T/C [36] 0.67%
87.3 nM: IC50 (second compound 0.0316 µM)
< 31.6 nM: IC50 (second compound 0.316 µM) | IC50 (second compound 1 µM) | IC50 (second compound 3.16 µM) | IC50 (second compound 10 µM)

O=c1[nH]cc(F)c(=O)[nH]1 + CN1CCN(c2cc(C(=O)Nc3cc4cc(-c5cnn(C)c5)ccc4cn3)ccn2)CC1
< 31.6 nM: IC50 (second compound 0.316 µM) | IC50 (second compound 1 µM) | IC50 (second compound 3.16 µM) | IC50 (second compound 10 µM)
inactive: viability, T/C [1] 99.7% | viability, T/C [2] 74.5% | viability, T/C [3] 83.8% | viability, T/C [4] 70.8% | viability, T/C [5] 41.6% | viability, T/C [6] 37% | viability, T/C [7] 66.7% | viability, T/C [8] 79% | viability, T/C [9] 62.4% | viability, T/C [10] 43.7% | viability, T/C [11] 24.8% | viability, T/C [12] 31% | viability, T/C [13] 18.2% | viability, T/C [14] 17.2% | viability, T/C [15] 12.4% | viability, T/C [16] 10.2% | viability, T/C [17] 12.2% | viability, T/C [18] 10.7%
2320 nM: IC50 (second compound 0.0316 µM)
667 nM: IC50 (second compound 0.1 µM)
active: viability, T/C [19] 0.31% | viability, T/C [20] 0.25% | viability, T/C [21] 0.25% | viability, T/C [22] 0.29% | viability, T/C [23] 0.14% | viability, T/C [24] 0.21% | viability, T/C [25] 0.18% | viability, T/C [26] 0.21% | viability, T/C [27] 0.22% | viability, T/C [28] 0.18% | viability, T/C [29] 0.5% | viability, T/C [30] 0.21% | viability, T/C [31] 0.08% | viability, T/C [32] 0.14% | viability, T/C [33] 0.14% | viability, T/C [34] 0.15% | viability, T/C [35] 0.29% | viability, T/C [36] 0.17%
